This note sets out measurements from US7723523B2, “Tetrahydropyridothiophenes” (4SC AG, priority 2004, dated 2010).

The structures appear in SMILES notation.

Experiment [1] relates to RKO (RKOp27) human colon adenocarcinoma cells. In words: Alamar Blue cell viability assay, anti-proliferative/cytotoxic activity on proliferating RKOp27 cells. Type of experiment: cell-based. Particulars: absence of Ponasterone A, 72 hours incubation, read-out: IC50 RKO p27 proliferating. The procedure: The anti-proliferative/cytotoxic activity of the compounds described herein, can be tested on subclones of RKO (RKOp27) human colon adenocarcinoma cells (Schmidt et al., Oncogene 19, 2423-2429; 2000) using the Alamar Blue cell viability assay (described in O'Brien et al. Eur J Biochem 267, 5421-5426, 2000). The compounds are dissolved as 20 mM solutions in dimethylsulfoxide (DMSO) and subsequently diluted in semi-logarithmic steps. DMSO dilutions are further diluted 1:100 into Dulbecco's modified Eagle's medium (DMEM) containing 10% fetal calf serum to a final concentration twice as much as the final concentration in the test. RKO subclones are seeded into 96 well flat bottom plates at a density of 4000 cells per well in a volume of 50 μl per well. 24 hours after seeding 50 μl each of the compound dilutions in DMEM are added into each well of the 96 well plate. Each compound dilution is tested as quadruplicates. Wells containing untreated control cells are filled with 50 μl DMEM containing 1% DMSO. The cells are then incubated with the substances for 72 hours at 37° C. in a humidified atmosphere containing 5% carbon dioxide. To determine the viability of the cells, 10 μl of an Alamar Blue solution (Biosource) are added and the fluorescence is measured at an extinction of 544 nm and an emission of 590 nm. For the calculation of the cell viability the emission value from untreated cells is set as 100% viability and the emission rates of treated cells are set in relation to the values of untreated cells. Viabilities are expressed as % values.
The corresponding IC50 values of the compounds for anti-proliferative/cytotoxic activity are determined from the concentration-effect curves.
Representative IC50 values for anti-proliferation/cytotoxicity determined in the aforementioned assay are described in the table A (1st column), in which the numbers of the compound correspond to the numbers of the examples.
(The colour change of resazurin is a common sign of viable cells or microbes.)

Experiment [2] deals with RKO colon adenocarcinoma cells (RKOp27) arrested by expression of ectopic p27Kip1. In words: Alamar Blue cell viability assay on RKOp27 cells arrested by Ponasterone A-induced p27Kip1 (cell cycle specific mode of action). Type of experiment: cell-based. Particulars: Homo sapiens, RKOp27, 72 h, cells arrested by p27Kip1 induced with 10 μM Ponasterone A, 72 hours incubation, read-out: IC50 RKO p27 arrested. On the procedure:
To determine the cell cycle specific mode of action, subclones of RKO colon adenocarcinoma cells (RKOp27 or RKOp21 as described by Schmidt et al. in Oncogene 19, 2423-2429; 2000) are seeded into 96 well flat bottom plates at a density of 16000 cells per well in a volume of 50 μl per well in DMEM growth medium with 10% FCS containing 10 μM Ponasterone A. 24 hours after seeding 50 μl each of the compound dilutions in DMEM are added into each well of the 96 well plate. Each compound dilution is tested as quadruplicates. Wells containing untreated control cells are filled with 50 μl DMEM containing 1% DMSO. The cells are then incubated with the substances for 72 hours at 37° C. in a humidified atmosphere containing 5% carbon dioxide. To determine the viability of the cells, 10 μl of an Alamar Blue solution (Biosource) are added and the fluorescence is measured at an extinction of 544 nm and an emission of 590 nm. For the calculation of the cell viability the emission value from untreated cells is set as 100% viability and the emission rates of treated cells are set in relation to the values of untreated cells. Viabilities are expressed as % values. Viability is compared of proliferating cells grown in the absence of the inducer Ponasterone A, versus viability of cells arrested by the expression of ectopic p27Kip1 induced by Ponasterone A. The data of this experimental setting are summarized in table A (2nd column).

For orientation: IC50 means the point on the concentration scale where inhibition reaches its midpoint. On to `N#Cc1c(NC(=O)/C=C/c2ccccc2)sc2c1CCN(C(=O)OCCN1CCOCC1)C2` [Example 112, 3-Cyano-2-((E)-3-phenyl-allanoylamino)-4,7-dihydro-5H-thieno[2,3-c]pyridine-6-carboxylic acid 2-morpholin-4-yl-ethyl ester], for which the IC50 in experiment [1] is ≤ 2 µM; in experiment [2] it was ≥ 100 µM.
In the same order, the values of `N#Cc1c(NC(=O)/C=C/c2ccccc2)sc2c1CCN(C(=O)OCCCc1ccncc1)C2` [Example 117, 3-Cyano-2-((E)-3-phenyl-allanoylamino)-4,7-dihydro-5H-thieno[2,3-c]pyridine-6-carboxylic acid 3-pyridin-4-yl-propyl ester] are ≤ 2 µM and ≥ 100 µM.
In the same order, the values of `N#Cc1c(NC(=O)/C=C/c2ccccc2)sc2c1CCN(C(=O)OCCO)C2` [Example 135, 3-Cyano-2-((E)-3-phenyl-allanoylamino)-4,7-dihydro-5H-thieno[2,3-c]pyridine-6-carboxylic acid 2-hydroxy-ethyl ester] are ≤ 2 µM and ≥ 100 µM.
Take `COCCOC(=O)N1CCc2c(sc(NC(=O)/C=C/c3ccco3)c2C#N)C1` [Example 240, 3-Cyano-2-((E)-3-furan-2-yl-allanoylamino)-4,7-dihydro-5H-thieno[2,3-c]pyridine-6-carboxylic acid 2-methoxy-ethyl ester]: the IC50 in experiment [1] is ≤ 2 µM; in experiment [2], ≥ 100 µM.
In the same order, the values of `CCOC(=O)N1CCc2c(sc(NC(=O)/C=C/c3ccccc3OC)c2C#N)C1` [Example 24, 3-Cyano-2-[(E)-3-(2-methoxy-phenyl)-allanoylamino]-4,7-dihydro-5H-thieno[2,3-c]pyridine-6-carboxylic acid ethyl ester] are ≤ 2 µM and > 100 µM.
On the same counts, the results for `CC1(C)OCC(COC(=O)N2CCc3c(sc(NC(=O)/C=C/c4ccccc4)c3C#N)C2)O1` (stereo not drawn) [Example 127, 3-Cyano-2-((E)-3-phenyl-allanoylamino)-4,7-dihydro-5H-thieno[2,3-c]pyridine-6-carboxylic acid 2,2-dimethyl-[1,3]dioxolan-4-ylmethyl ester] are ≤ 2 µM and ≥ 100 µM.
On the same counts, the results for `CCOC(=O)N1CCc2c(sc(NC(=O)/C=C/c3ccc(-c4ccccc4)s3)c2C#N)C1` [Example 85, 3-Cyano-2-[(E)-3-(5-phenyl-thiophen-2-yl)-allanoylamino]-4,7-dihydro-5H-thieno[2,3-c]pyridine-6-carboxylic acid ethyl ester] are ≤ 2 µM and ≥ 100 µM.
Turning to `N#Cc1c(NC(=O)/C=C/c2cccnc2)sc2c1CCN(C(=O)CCc1cccnc1)C2` [Example 193, (E)-N-[3-Cyano-6-(3-pyridin-3-yl-propanoyl)-4,5,6,7-tetrahydro-thieno[2,3-c]pyridin-2-yl]-3-pyridin-3-yl-acrylamide], the IC50 was ≤ 2 µM in experiment [1] and ≥ 100 µM in experiment [2].
On the same counts, the results for `CC(C)(C)OC(=O)N1CCc2c(sc(NC(=O)/C=C/c3ccoc3)c2C#N)C1` [Example 55, 3-Cyano-2-((E)-3-furan-3-yl-allanoylamino)-4,7-dihydro-5H-thieno[2,3-c]pyridine-6-carboxylic acid tert-butyl ester] are ≤ 2 µM and ≥ 100 µM.
On the same counts, the results for `CCOC(=O)N1CCc2c(sc(NC(=O)/C=C/c3ccccc3)c2C#N)C1` [Example 1, N-(6-Ethoxycarbonyl-3-cyano-4,5,6,7-tetrahydro-thieno[2,3-c]pyridin-2-yl)-3-phenyl-acrylamide] are < 1 µM and > 100 µM.
Turning to `CCCOC(=O)N1CCc2c(sc(NC(=O)/C=C/c3cccnc3)c2C#N)C1` [Example 145, 3-Cyano-2-((E)-3-pyridin-3-yl-allanoylamino)-4,7-dihydro-5H-thieno[2,3-c]pyridine-6-carboxylic acid propyl ester], the IC50 in experiment [1] is ≤ 0.5 µM; in experiment [2] it was ≥ 50 µM.
Consider `CCOC(=O)N1CCc2c(sc(NC(=O)/C=C/c3cccc4c3OCC4)c2C#N)C1` [Example 234, 3-Cyano-2-((E)-3-2,3-dihydro-benzofuran-7-yl-allanoylamino)-4,7-dihydro-5H-thieno[2,3-c]pyridine-6-carboxylic acid ethyl ester], for which the IC50 in experiment [1] was ≤ 2 µM; in experiment [2], ≥ 100 µM.
On the same counts, the results for `CCOC(=O)N1CCc2c(sc(NC(=O)/C=C/c3ccc4c(c3Br)OCO4)c2C#N)C1` [Example 232, 2-[(E)-3-(4-Bromo-benzo[1,3]dioxol-5-yl)-allanoylamino]-3-cyano-4,7-dihydro-5H-thieno[2,3-c]pyridine-6-carboxylic acid ethyl ester] are ≤ 2 µM and ≥ 100 µM.
On the same counts, the results for `CCOC(=O)N1CCc2c(sc(NC(=O)/C=C/c3cccc(Cl)c3)c2C#N)C1` [Example 13, 2-[(E)-3-(3-Chloro-phenyl)-allanoylamino]-3-cyano-4,7-dihydro-5H-thieno[2,3-c]pyridine-6-carboxylic acid ethyl ester] are ≤ 2 µM and > 100 µM.
On the same counts, the results for `CCOc1ccccc1/C=C/C(=O)Nc1sc2c(c1C#N)CCN(C(=O)OCCOC)C2` [Example 235, 3-Cyano-2-[(E)-3-(2-ethoxy-phenyl)-allanoylamino]-4,7-dihydro-5H-thieno[2,3-c]pyridine-6-carboxylic acid 2-methoxy-ethyl ester] are ≤ 2 µM and ≥ 100 µM.
For `COc1ccccc1/C=C/C(=O)Nc1sc2c(c1C#N)CCN(C(=O)CCc1cccnc1)C2` [Example 206, (E)-N-[3-Cyano-6-(3-pyridin-3-yl-propanoyl)-4,5,6,7-tetrahydro-thieno[2,3-c]pyridin-2-yl]-3-(2-methoxy-phenyl)-acrylamide], the IC50 in experiment [1] was ≤ 2 µM; in experiment [2] it was ≥ 100 µM.
On the same counts, the results for `CCOc1ccccc1/C=C/C(=O)Nc1sc2c(c1C#N)CCN(C(=O)Cc1cccnc1)C2` [Example 219, (E)-N-[3-Cyano-6-(2-pyridin-3-yl-ethanoyl)-4,5,6,7-tetrahydro-thieno[2,3-c]pyridin-2-yl]-3-(2-ethoxy-phenyl)-acrylamide] are ≤ 2 µM and ≥ 100 µM.
In the same order, the values of `N#Cc1c(NC(=O)/C=C/c2ccco2)sc2c1CCN(C(=O)OCc1ccccn1)C2` [Example 241, 3-Cyano-2-((E)-3-furan-2-yl-allanoylamino)-4,7-dihydro-5H-thieno[2,3-c]pyridine-6-carboxylic acid pyridin-2-ylmethyl ester] are ≤ 2 µM and ≥ 100 µM.
In the same order, the values of `CCOc1ccccc1/C=C/C(=O)Nc1sc2c(c1C#N)CCN(C(=O)CCc1ccccc1)C2` [Example 221, (E)-N-[3-Cyano-6-(3-phenyl-propanoyl)-4,5,6,7-tetrahydro-thieno[2,3-c]pyridin-2-yl]-3-(2-ethoxy-phenyl)-acrylamide] are ≤ 2 µM and ≥ 100 µM.
For the molecule `COCCOC(=O)N1CCc2c(sc(NC(=O)/C=C/c3cccnc3)c2C#N)C1` [Example 167, 3-Cyano-2-((E)-3-pyridin-3-yl-allanoylamino)-4,7-dihydro-5H-thieno[2,3-c]pyridine-6-carboxylic acid 2-methoxy-ethyl ester], the IC50 in experiment [1] is ≤ 2 µM; in experiment [2], ≥ 100 µM.
On the same counts, the results for `CCOc1ccccc1/C=C/C(=O)Nc1sc2c(c1C#N)CCN(C(=O)OCc1ccncc1)C2` [Example 238, 3-Cyano-2-[(E)-3-(2-ethoxy-phenyl)-allanoylamino]-4,7-dihydro-5H-thieno[2,3-c]pyridine-6-carboxylic acid pyridin-4-ylmethyl ester] are ≤ 2 µM and ≥ 100 µM.
